# Reference: patent publication US6461844B1, “Liver GalNAc-1-phosphate kinase” (The Board of Trustees of the University of Arkansas, priority 1995, dated 2002)
# Entries after “also recorded” stand apart in the source; their conditions may differ.
# Key:
# GalNAc kinase [1] = target: T1, GalNAc kinase (Sus scrofa, UniProt A0A287BB25); assay: Phosphate donor specificity of GalNAc kinase; format: biochemical, pig; design: Radioactivity in Sugar-P: unit not given beside the values; conditions: for Radioactivity in Sugar-P / Specific Activity: nucleotide added at 5 mM
# T1 construct: This enzyme was purified about 1400-fold from the cytosolic fraction of pig kidney; from tissue; host or cells: pig kidney cytosol
# GalNAc kinase [2] = target: T1, GalNAc kinase; assay: Divalent cation requirement of GalNAc kinase; format: biochemical, pig; conditions: for stimulation of the kinase: tested at a variety of concentrations; for maximum activity relative to optimum concentrations of Mg++: at optimum cation concentration
# Experimental: FIG. 1 illustrates the effect of various divalent cations on the GalNAc kinase. Various amounts of Mg^++, Mn^++, or Co^++ were added to incubations prepared as indicated below. The amount of GalNAc phosphorylated in each incubation by the purified enzyme was determined as described in the assay conditions.
# (§1) GalNAc kinase activity was assayed in incubation mixtures of 200 μl containing the following components: [^3H]GalNAc (10,000 cpm), 1 μmole of ATP, 2 μmoles of MgCl2, 20 μmoles of Tris-HCl buffer, pH 7.5, and various amounts of the enzyme preparations to be assayed. Following an incubation for the appropriate time, the reaction was stopped by heating at 100° C. for 5 min., and the incubation mixture was applied to a column of DE-52. The column was washed with at least 5 column volumes of 10 mM (NH4)HCO3 buffer to remove unbound material, and then GalNAc phosphate was eluted with 500 mM ammonium bicarbonate. Aliquots of the wash and eluent were removed and assayed for their radioactive content by scintillation counting.
# The addition of Mg^++ greatly stimulated the activity, and maximum activity occurred at 6 mM Mg^++. Other divalent cations, such as Mn^++ and Co^++ were also somewhat stimulatory, but much less so than Mg^++.
# GalNAc kinase [3] = target: T1, GalNAc kinase; assay: Effect of sulfhydryl reagents on GalNAc kinase activity; format: biochemical, pig; conditions: for Activity (cpm in Sugar-P): control 8700
# Experimental: as §1
# In order to determine whether sulfhydryl groups are necessary for catalytic activity, the effects of various compounds known to react with and inactivate sulfhydryl groups, were examined on the kinase activity.
# GalNAc kinase [4] = target: T1, GalNAc kinase; assay: Sugar specificity of GalNAc kinase; format: biochemical, pig; conditions: for Radioactivity Incorp.: labeled sugars of same specific activity; for activity as phosphate acceptor: purified kinase; for activity as % of the activity observed with GalNAc: sugar as substrate
# Experimental: as §1
# A variety of sugars were tested and in each case the specific radioactivity of the labeled sugar was adjusted with unlabeled material so that all were of the same specific activity in order to allow a true comparison of their ability to serve as substrates for the kinase. The amount of radioactivity that bound to DE-52 and was eluted with (NH4)HCO3 was taken as a measure of phosphorylation by the enzyme.
# yeast galactokinase = target: T2, yeast galactokinase (Saccharomyces cerevisiae, UniProt P04385); assay: Sugar specificity of yeast galactokinase; format: biochemical; conditions: for Radioactivity Incorporated (Δ cpm): minus 0 ul value
# T2 construct: purchased Sigma Chemical Co
# T2 sequence (P04385 1-528): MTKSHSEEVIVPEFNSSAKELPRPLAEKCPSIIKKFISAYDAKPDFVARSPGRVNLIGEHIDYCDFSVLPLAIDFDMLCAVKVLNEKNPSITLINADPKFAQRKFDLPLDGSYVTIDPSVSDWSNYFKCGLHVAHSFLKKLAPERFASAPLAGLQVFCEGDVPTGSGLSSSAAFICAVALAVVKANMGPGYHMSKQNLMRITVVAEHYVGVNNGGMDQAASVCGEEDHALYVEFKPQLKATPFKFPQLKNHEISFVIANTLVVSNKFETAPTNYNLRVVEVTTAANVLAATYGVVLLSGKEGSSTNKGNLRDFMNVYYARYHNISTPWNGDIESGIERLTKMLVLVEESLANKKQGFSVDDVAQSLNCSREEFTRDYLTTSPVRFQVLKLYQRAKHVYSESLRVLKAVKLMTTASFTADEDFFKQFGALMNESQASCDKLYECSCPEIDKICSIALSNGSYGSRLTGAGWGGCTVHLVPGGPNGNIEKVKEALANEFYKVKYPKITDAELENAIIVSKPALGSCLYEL
# Excerpt: Galactokinase is an enzyme known to phosphorylate galactose in the one position. […] The specificity of the galactokinase and the GalNAc kinase indicate that they are two different enzymes.
# [5] = system: UDP-GlcNAc pyrophosphorylases; conditions: UDP-GlcNAc = 100%; cited from earlier work
# T1 sequence (A0A287BB25 1-458): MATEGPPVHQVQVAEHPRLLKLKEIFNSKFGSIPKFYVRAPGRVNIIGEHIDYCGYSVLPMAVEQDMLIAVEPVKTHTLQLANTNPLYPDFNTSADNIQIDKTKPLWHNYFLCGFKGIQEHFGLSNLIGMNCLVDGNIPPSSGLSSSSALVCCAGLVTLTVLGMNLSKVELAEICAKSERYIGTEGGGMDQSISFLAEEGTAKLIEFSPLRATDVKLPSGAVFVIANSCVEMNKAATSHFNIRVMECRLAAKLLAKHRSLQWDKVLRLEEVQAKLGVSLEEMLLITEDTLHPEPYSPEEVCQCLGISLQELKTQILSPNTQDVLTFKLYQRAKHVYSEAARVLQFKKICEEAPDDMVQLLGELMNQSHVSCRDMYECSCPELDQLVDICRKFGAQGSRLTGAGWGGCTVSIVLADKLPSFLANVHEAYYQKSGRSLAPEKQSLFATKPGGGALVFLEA
smiles,measurement,setting,value
Nc1nc2c(ncn2[C@@H]2O[C@H](COP(=O)(O)OP(=O)(O)O)[C@@H](O)[C@H]2O)c(=O)[nH]1 [GDP],Radioactivity in Sugar-P,GalNAc kinase [1],10
same,Specific Activity,GalNAc kinase [1],0.1 nmol/mg
Nc1ccn([C@@H]2O[C@H](COP(=O)(O)OP(=O)(O)OP(=O)(O)O)[C@@H](O)[C@H]2O)c(=O)n1 [CTP],activity as phosphate donor,GalNAc kinase [1],only slightly above background levels
same,Radioactivity in Sugar-P,GalNAc kinase [1],370
same,Specific Activity,GalNAc kinase [1],5.8 nmol/mg
[Mo+2] [Mo^++],stimulation of the kinase,GalNAc kinase [2],inactive
O=c1ccn([C@@H]2O[C@H](COP(=O)(O)OP(=O)(O)O)[C@@H](O)[C@H]2O)c(=O)[nH]1 [UDP],Radioactivity in Sugar-P,GalNAc kinase [1],30
same,Specific Activity,GalNAc kinase [1],0.5 nmol/mg
CC(=O)OP(=O)(O)O [acetylphosphate],activity as phosphate donor,GalNAc kinase [1],No activity
"NC(=O)CI [IAA, iodoacetamide]",concentration at which effective as an inhibitor,GalNAc kinase [3],above 1 mM
same,Activity (cpm in Sugar-P),GalNAc kinase [3]; inhibitor 0.1 mM,8260 cpm
same,Activity (cpm in Sugar-P),GalNAc kinase [3]; inhibitor 0.5 mM,7660 cpm
same,Activity (cpm in Sugar-P),GalNAc kinase [3]; inhibitor 1 mM,5490 cpm
same,Activity (cpm in Sugar-P),GalNAc kinase [3]; inhibitor 2 mM,2170 cpm
same,Activity (cpm in Sugar-P),GalNAc kinase [3]; inhibitor 4 mM,658 cpm
C=C(OP(=O)(O)O)C(=O)O [phosphoenolpyruvate],activity as phosphate donor,GalNAc kinase [1],No activity
"N[C@H]1C(O)O[C@H](CO)[C@H](O)[C@@H]1O (stereo partly shown) [GalN, galactosamine]",Radioactivity Incorp.,GalNAc kinase [4]; 4 μl enzyme,449 cpm
same,Radioactivity Incorp.,GalNAc kinase [4]; 8 μl enzyme,468 cpm
same,activity as phosphate acceptor,GalNAc kinase [4],inactive
same,activity as % of the activity observed with GalNAc,GalNAc kinase [4],1%
same,activity as substrate of yeast galactokinase,yeast galactokinase,slight activity
same,Radioactivity Incorporated,yeast galactokinase; 2 ul enzyme,300 cpm
same,Radioactivity Incorporated (Δ cpm),yeast galactokinase; 2 ul enzyme,173 cpm
same,Radioactivity Incorporated,yeast galactokinase; 4 ul enzyme,440 cpm
"O=C[C@H](O)[C@@H](O)[C@@H](O)[C@H](O)CO [Gal, galactose]",Radioactivity Incorp.,GalNAc kinase [4]; 4 μl enzyme,301 cpm
same,Radioactivity Incorp.,GalNAc kinase [4]; 8 μl enzyme,442 cpm
same,activity as phosphate acceptor,GalNAc kinase [4],inactive
same,activity as % of the activity observed with GalNAc,GalNAc kinase [4],1%
same,activity as substrate of yeast galactokinase,yeast galactokinase,very active
same,Radioactivity Incorporated,yeast galactokinase; 2 ul enzyme,6900 cpm
same,Radioactivity Incorporated (Δ cpm),yeast galactokinase; 2 ul enzyme,6835 cpm
same,Radioactivity Incorporated,yeast galactokinase; 4 ul enzyme,7530 cpm
same,Radioactivity Incorporated (Δ cpm),yeast galactokinase; 4 ul enzyme,7465 cpm
CC(=O)N[C@H]1[C@@H](OP(=O)(O)OP(=O)(O)OC[C@H]2O[C@@H](n3ccc(=O)[nH]c3=O)[C@H](O)[C@@H]2O)O[C@H](CO)[C@@H](O)[C@@H]1O [UDP-GlcNAc],activity towards substrate,[5],100%
"CC(=O)N[C@@H]1C(O)O[C@H](CO)[C@@H](O)[C@@H]1O (stereo partly shown) [ManNAc, N-acetylmannosamine]",Radioactivity Incorp.,GalNAc kinase [4]; 4 μl enzyme,475 cpm
same,Radioactivity Incorp.,GalNAc kinase [4]; 8 μl enzyme,89 cpm
same,activity as phosphate acceptor,GalNAc kinase [4],inactive
"CC(=O)N[C@H]1C(O)O[C@H](CO)[C@H](O)[C@@H]1O (stereo partly shown) [GalNAc, N-acetylgalactosamine]",Radioactivity Incorp.,GalNAc kinase [4]; 4 μl enzyme,"14,094 cpm"
same,Radioactivity Incorp.,GalNAc kinase [4]; 8 μl enzyme,"18,448 cpm"
same,activity as substrate of yeast galactokinase,yeast galactokinase,no phosphorylation
same,Radioactivity Incorporated,yeast galactokinase; 2 ul enzyme,37 cpm
same,Radioactivity Incorporated (Δ cpm),yeast galactokinase; 2 ul enzyme,0 cpm
same,Radioactivity Incorporated,yeast galactokinase; 4 ul enzyme,83 cpm
same,Radioactivity Incorporated (Δ cpm),yeast galactokinase; 4 ul enzyme,11 cpm
"O=C(O)c1cc[c]([Hg][Cl])cc1 [pCMB, p-chloromercuribenzoate]",inhibition of enzymatic activity,GalNAc kinase [3]; 0.02 mM,over 70%
same,inhibition of enzymatic activity,GalNAc kinase [3]; 0.04 mM,complete inhibition
same,Activity (cpm in Sugar-P),GalNAc kinase [3]; inhibitor 0.02 mM,2660 cpm
same,Activity (cpm in Sugar-P),GalNAc kinase [3]; inhibitor 0.04 mM,250 cpm
same,Activity (cpm in Sugar-P),GalNAc kinase [3]; inhibitor 0.06 mM,30 cpm
same,Activity (cpm in Sugar-P),GalNAc kinase [3]; inhibitor 0.1 mM,20 cpm
same,Activity (cpm in Sugar-P),GalNAc kinase [3]; inhibitor 0.25 mM,50 cpm
O=c1[nH]cnc2c1ncn2[C@@H]1O[C@H](COP(=O)(O)OP(=O)(O)OP(=O)(O)O)[C@@H](O)[C@H]1O [ITP],activity as phosphate donor,GalNAc kinase [1],slight activity; also recorded: some activity
same,Radioactivity in Sugar-P,GalNAc kinase [1],900
same,Specific Activity,GalNAc kinase [1],14.1 nmol/mg
[Zn+2] [Zn^++],stimulation of the kinase,GalNAc kinase [2],inactive
[Ni+2] [Ni^++],stimulation of the kinase,GalNAc kinase [2],inactive
Nc1ncnc2c1ncn2[C@@H]1O[C@H](COP(=O)(O)OP(=O)(O)O)[C@@H](O)[C@H]1O [ADP],activity as phosphate donor,GalNAc kinase [1],only slightly above background levels
same,Radioactivity in Sugar-P,GalNAc kinase [1],260
same,Specific Activity,GalNAc kinase [1],4.0 nmol/mg
O=c1ccn([C@@H]2O[C@H](COP(=O)(O)OP(=O)(O)OP(=O)(O)O)[C@@H](O)[C@H]2O)c(=O)[nH]1 [UTP],Radioactivity in Sugar-P,GalNAc kinase [1],180
same,Specific Activity,GalNAc kinase [1],2.8 nmol/mg
Nc1ccn([C@@H]2O[C@H](COP(=O)(O)OP(=O)(O)O)[C@@H](O)[C@H]2O)c(=O)n1 [CDP],activity as phosphate donor,GalNAc kinase [1],only slightly above background levels
same,Radioactivity in Sugar-P,GalNAc kinase [1],490
same,Specific Activity,GalNAc kinase [1],7.6 nmol/mg
[Mn+2] [Mn^++],cation concentration for maximum (optimum) activity,GalNAc kinase [2],2 to 8 mM
same,maximum activity relative to optimum concentrations of Mg++,GalNAc kinase [2],about 50%
"CC(=O)N[C@H]1C(O)O[C@H](CO)[C@@H](O)[C@@H]1O (stereo partly shown) [GlcNAc, N-acetylglucosamine]",Radioactivity Incorp.,GalNAc kinase [4]; 4 μl enzyme,135 cpm
same,Radioactivity Incorp.,GalNAc kinase [4]; 8 μl enzyme,147 cpm
same,activity as phosphate acceptor,GalNAc kinase [4],inactive
same,Radioactivity Incorporated,yeast galactokinase; 2 ul enzyme,133 cpm
same,Radioactivity Incorporated (Δ cpm),yeast galactokinase; 2 ul enzyme,60 cpm
same,Radioactivity Incorporated,yeast galactokinase; 4 ul enzyme,84 cpm
same,Radioactivity Incorporated (Δ cpm),yeast galactokinase; 4 ul enzyme,10 cpm
Nc1nc2c(ncn2[C@@H]2O[C@H](COP(=O)(O)OP(=O)(O)OP(=O)(O)O)[C@@H](O)[C@H]2O)c(=O)[nH]1 [GTP],activity as phosphate donor,GalNAc kinase [1],only slightly above background levels
same,Radioactivity in Sugar-P,GalNAc kinase [1],300
same,Specific Activity,GalNAc kinase [1],4.7 nmol/mg
"CCN1C(=O)C=CC1=O [NEM, N-ethylmaleimide]",inhibition at 500 µM,"GalNAc kinase [3]; 0.5 mM, read-out: inhibition of enzymatic activity",90%
same,Activity (cpm in Sugar-P),GalNAc kinase [3]; inhibitor 0.1 mM,9050 cpm
same,Activity (cpm in Sugar-P),GalNAc kinase [3]; inhibitor 0.5 mM,805 cpm
same,Activity (cpm in Sugar-P),GalNAc kinase [3]; inhibitor 1 mM,40 cpm
same,Activity (cpm in Sugar-P),GalNAc kinase [3]; inhibitor 2 mM,0 cpm
same,Activity (cpm in Sugar-P),GalNAc kinase [3]; inhibitor 4 mM,0 cpm
[Co+2] [Co^++],cation concentration for maximum (optimum) activity,GalNAc kinase [2],10 mM
same,maximum activity relative to optimum concentrations of Mg++,GalNAc kinase [2],about 50%
[Ca+2] [Ca^++],stimulation of the kinase,GalNAc kinase [2],inactive
[Cu+2] [Cu^++],stimulation of the kinase,GalNAc kinase [2],inactive
[Fe+3] [Fe^+++],stimulation of the kinase,GalNAc kinase [2],inactive
"N[C@H]1C(O)O[C@H](CO)[C@@H](O)[C@@H]1O (stereo partly shown) [GlcN, glucosamine]",Radioactivity Incorp.,GalNAc kinase [4]; 4 μl enzyme,189 cpm
same,Radioactivity Incorp.,GalNAc kinase [4]; 8 μl enzyme,206 cpm
same,activity as phosphate acceptor,GalNAc kinase [4],inactive
same,Radioactivity Incorporated,yeast galactokinase; 2 ul enzyme,135 cpm
same,Radioactivity Incorporated (Δ cpm),yeast galactokinase; 2 ul enzyme,0 cpm
same,Radioactivity Incorporated,yeast galactokinase; 4 ul enzyme,150 cpm
same,Radioactivity Incorporated (Δ cpm),yeast galactokinase; 4 ul enzyme,0 cpm
